# Measured values as given in article PMC8206213, “An L-2-hydroxyglutarate biosensor based on specific transcriptional regulator LhgR” (Nature Communications, 2021).
# Where “and” joins values, the source holds several entries; their conditions need not be identical. Equal entries are not always repeated. Where two headings read alike, the source gives them in different places.
# Key:
# LHGFR0N3C [1] = experiment: Specificity of purified LHGFR0N3C, emission ratio with 240 μM compounds; format: binding, Pseudomonas putida W619; conditions: 240 μM compound
# Procedure: (§1) Purified L-2-HG biosensors and different compounds were diluted by 50 mM Tris-HCl buffer (pH 7.4), mixed together in a black 96-well plate at a volume ratio of 3:1, and the fluorescence intensities were measured using an EnSight microplate reader (PerkinElmer, USA) with excitation at 430 nm, emission at 485 nm (mTFP) and 528 nm (Venus). […] The [L-2-HG], Kd, and p refer to the L-2-HG concentration, apparent dissociation constant, and Hill slope, respectively. Emission spectra were recorded at 430 nm excitation, in steps of 2 nm. Excitation spectra were recorded using emission at 550 nm, excitation from 380 to 535 nm in steps of 2 nm.
# LHGFR0N7C [2] = experiment: Influence of other compounds on the response of purified LHGFR0N7C to L-2-HG; format: binding, Pseudomonas putida W619; conditions: Suppl. Fig. 9b; L-2-HG alone or with the compound; three replicates
# Procedure: as §1
# LHGFR0N3C [3] = experiment: Influence of other compounds on the response of purified LHGFR0N3C to L-2-HG; format: binding, Pseudomonas putida W619; conditions: Suppl. Fig. 9a; L-2-HG alone or with the compound; three replicates
# Procedure: as §1
# LhgR = experiment: EMSA, effect of compounds on LhgR binding to the lhgO promoter region F1; set-up: species or system Pseudomonas putida W619; conditions: 50 mM compound, 10 nM F1, 60 nM LhgR
# Procedure: Electrophoretic mobility shift assays (EMSAs) were carried out using the DNA fragment (F1 or F2) and purified LhgR. The DNA fragments were first amplified by primer pairs F1-F/F1-R and F2-F/F2-R, respectively. Then, either fragment at a concentration of 10 nM DNA was incubated with LhgR (0–160 nM) in 20 μL EMSA binding buffer (10 mM Tris-HCl [pH 7.4], 50 mM KCl, 0.5 mM EDTA, 10% [vol/vol] glycerol, and 1 mM dithiothreitol [DTT]). The binding reactions were carried out at 30 °C for 30 min. Electrophoresis was performed on 6% native polyacrylamide gels at 4 °C and 170 V (constant voltage) for about 45 min, followed by staining with SYBR green I (TaKaRa, China) and photographing. Analysis of the interaction between lhgO promoter region (F1) and LHGFR was performed using the same procedure.
# To characterize the effector of LhgR, purified LhgR was first incubated with L-lysine, 5-aminovalerate, glutarate, L-2-HG, D-2-HG, 2-KG, or succinate at 30 °C for 15 min, followed by incubation with the added DNA fragments at 30 °C for 30 min. The mixtures were subsequently subjected to electrophoresis.
# LHGFR0N7C [4] = experiment: Specificity of purified LHGFR0N7C, emission ratio with 240 μM compounds; format: binding, Pseudomonas putida W619; conditions: 240 μM compound
# Procedure: as §1
# HEK293FT cells = experiment: Hypoxia-induced L-2-HG production in LHGFR-expressing HEK293FT cells with or without 5 mM DMαKG; format: cell-based, human; conditions: for L-2-HG concentration: in µM
# Procedure: HEK293FT cells were cultured in high-glucose Dulbecco’s modified eagle medium (DMEM) supplemented with 10% (vol/vol) fetal bovine serum (FBS), 100 units mL^−1 penicillin, and 100 μg mL^−1 streptomycin (all purchased from ThermoFisher, USA), and kept at 37 °C in humidified air containing 5% CO2. For hypoxia experiments, cells were kept in a compact O2 and CO2 subchamber controller (ProOx C21, BioSpherix, USA) at 2% O2, 5% CO2, and balanced with N2 for 24 h. For the construction of LHGFR expressing cell, HEK293FT cells were plated in 24-well plates so that they reached 70-90% confluency 24 h after plating, the medium was refreshed 2 h before transfection.
# The preparation of cell suspensions and the measurement of emission ratios were performed using the same procedure. The background fluorescence was subtracted at each emission wavelength.
# P. putida KT2440 [5] = format: cell-based, Pseudomonas putida KT2440; conditions: Fig. 4j
# Procedure: The bacterial strains used in this study are listed in Supplementary Data 1. E. coli and its derivatives were cultured in Luria–Bertani (LB) broth at 37 °C and 180 rpm. P. putida KT2440 and its derivatives were grown in minimal salt mediums (MSMs) containing different carbon sources at 30 °C and 200 rpm. Antibiotics were used at the following concentrations: tetracycline at 30 μg mL^−1; kanamycin at 50 μg mL^−1; ampicillin at 100 μg mL^−1; spectinomycin, at 50 μg mL^−1; and chloramphenicol at 40 μg mL^−1.
# P. putida KT2440 [6] = format: cell-based, Pseudomonas putida KT2440
compound,measurement,setting,value
"O=C(O)CCC(=O)C(=O)O [2-KG, 2-ketoglutarate]",Emission ratio,LHGFR0N3C [1],1.349 and 1.385 and 1.381
same,Induction of emission ratio changes,LHGFR0N3C [1],None
same,Emission ratio,LHGFR0N7C [2],2.436 and 2.603 and 2.441
same,Emission ratio,LHGFR0N3C [3],2.007 and 2.049 and 2.099
same,Effect on LhgR binding to the lhgO promoter region F1,LhgR,observed only in the presence of L-2-HG
same,Emission ratio,LHGFR0N7C [4],1.701 and 1.693 and 1.728
same,Induction of emission ratio changes,LHGFR0N7C [4],None
"NCCCCC(=O)O [5-Aminovalerate, 5-aminovalerate]",Emission ratio,LHGFR0N3C [1],1.403 and 1.397 and 1.408
same,Induction of emission ratio changes,LHGFR0N3C [1],None
same,Emission ratio,LHGFR0N7C [2],2.625 and 2.696 and 2.709
same,Emission ratio,LHGFR0N3C [3],2.084 and 2.019 and 2.1
same,Effect on LhgR binding to the lhgO promoter region F1,LhgR,observed only in the presence of L-2-HG
same,Emission ratio,LHGFR0N7C [4],1.703 and 1.69 and 1.7015
same,Induction of emission ratio changes,LHGFR0N7C [4],None
COC(=O)CCC(=O)C(=O)OC [DMaKG],Normalized emission ratio,"HEK293FT cells; 2% O2, With DMaKG, Supplementary Fig. 18e",1.018 and 0.9342 and 1.029 and 0.9552
same,Normalized emission ratio,"HEK293FT cells; 21% O2, With DMaKG, Supplementary Fig. 18e",1.029 and 0.993 and 1.008 and 0.9754
same,Normalized emission ratio,"HEK293FT cells; Fig. 6f, 2% O2, With DMaKG",1.196 and 1.188 and 1.187 and 1.206
same,L-2-HG concentration,"HEK293FT cells; Fig. 6f, 2% O2, With DMaKG",547.911 and 427.301 and 412.83 and 794.44
same,Normalized emission ratio,"HEK293FT cells; Fig. 6f, 21% O2, With DMaKG",1.081 and 1.084 and 1.102 and 1.071
same,L-2-HG concentration,"HEK293FT cells; Fig. 6f, 21% O2, With DMaKG",66.2807 and 68.36 and 87.5008 and 58.4114
"OC[C@H]1OC(O)[C@H](O)[C@@H](O)[C@@H]1O (stereo partly drawn) [Glucose, glucose]",Growth,"P. putida KT2440 [5]; DlhgO, 0 h",0.077 and 0.079 and 0.073
same,Growth,"P. putida KT2440 [5]; DlhgO, 2 h",0.083 and 0.078 and 0.075
same,Growth,"P. putida KT2440 [5]; DlhgO, 4 h",0.24 and 0.208 and 0.228
same,Growth,"P. putida KT2440 [5]; DlhgO, 6 h",0.666 and 0.603 and 0.661
same,Growth,"P. putida KT2440 [5]; DlhgO, 8 h",1.5 and 1.401 and 1.461
same,Growth,"P. putida KT2440 [5]; DlhgO, 10 h",3.165 and 3.065
same,Growth,"P. putida KT2440 [5]; DlhgO, 12 h",3.835 and 3.65 and 3.86
same,Growth,"P. putida KT2440 [5]; DlhgO, 14 h",3.605 and 3.535 and 3.66
same,Growth,"P. putida KT2440 [5]; DlhgO, 16 h",3.66 and 3.5 and 3.7
same,Growth,"P. putida KT2440 [5]; WT, 0 h",0.077 and 0.08 and 0.081
same,Growth,"P. putida KT2440 [5]; WT, 2 h",0.079 and 0.092
same,Growth,"P. putida KT2440 [5]; WT, 4 h",0.25 and 0.292 and 0.281
same,Growth,"P. putida KT2440 [5]; WT, 6 h",0.635 and 0.605 and 0.701
same,Growth,"P. putida KT2440 [5]; WT, 8 h",1.404 and 1.446 and 1.5
same,Growth,"P. putida KT2440 [5]; WT, 10 h",2.675 and 2.785 and 2.9
same,Growth,"P. putida KT2440 [5]; WT, 12 h",3.11 and 3.205 and 3.1
same,Growth,"P. putida KT2440 [5]; WT, 14 h",3.13 and 3.115 and 3.035
same,Growth,"P. putida KT2440 [5]; WT, 16 h",3.015 and 3.115 and 3.15
same,Extracellular L-2-HG accumulation,"P. putida KT2440 [6]; DlhgO, 0 h, Fig. 4l",0.0018 and 0.00159 and 0.00178
same,Extracellular L-2-HG accumulation,"P. putida KT2440 [6]; DlhgO, 2 h, Fig. 4k",0.00214 and 0.00144 and 0.00151
same,Extracellular L-2-HG accumulation,"P. putida KT2440 [6]; DlhgO, 2 h, Fig. 4l",0.00161 and 0.00173 and 0.00155
same,Extracellular L-2-HG accumulation,"P. putida KT2440 [6]; DlhgO, 4 h, Fig. 4l",0.00126 and 0.00158 and 0.00143
same,Extracellular L-2-HG accumulation,"P. putida KT2440 [6]; DlhgO, 6 h, Fig. 4k",0.0027 and 0.00158 and 0.00192
same,Extracellular L-2-HG accumulation,"P. putida KT2440 [6]; DlhgO, 6 h, Fig. 4l",0.00592 and 0.00434 and 0.00414
same,Extracellular L-2-HG accumulation,"P. putida KT2440 [6]; DlhgO, 8 h, Fig. 4l",0.00588 and 0.0049 and 0.00675
same,Extracellular L-2-HG accumulation,"P. putida KT2440 [6]; DlhgO, 10 h, Fig. 4k",0.00624 and 0.00847 and 0.00636
same,Extracellular L-2-HG accumulation,"P. putida KT2440 [6]; DlhgO, 10 h, Fig. 4l",0.00724 and 0.00794 and 0.00631
same,Extracellular L-2-HG accumulation,"P. putida KT2440 [6]; DlhgO, 12 h, Fig. 4k",0.0023 and 0.00219 and 0.00146
same,Extracellular L-2-HG accumulation,"P. putida KT2440 [6]; DlhgO, 12 h, Fig. 4l",0.0051 and 0.00546 and 0.00628
same,Extracellular L-2-HG accumulation,"P. putida KT2440 [6]; DlhgO, 14 h, Fig. 4l",0.00618 and 0.0058 and 0.00573
same,Extracellular L-2-HG accumulation,"P. putida KT2440 [6]; DlhgO, 16 h, Fig. 4k",0.00357 and 0.00321 and 0.00356
same,Extracellular L-2-HG accumulation,"P. putida KT2440 [6]; DlhgO, 16 h, Fig. 4l",0.00553 and 0.0046 and 0.00552
same,Extracellular L-2-HG accumulation,"P. putida KT2440 [6]; WT, 0 h, Fig. 4k",6.56E-04 and 9.68E-04 and 7.73E-04
same,Extracellular L-2-HG accumulation,"P. putida KT2440 [6]; WT, 0 h, Fig. 4l",9.79E-04 and 0.00104 and 6.27E-04
same,Extracellular L-2-HG accumulation,"P. putida KT2440 [6]; WT, 2 h, Fig. 4k",1.95E-04 and 2.26E-04 and 1.15E-04
same,Extracellular L-2-HG accumulation,"P. putida KT2440 [6]; WT, 2 h, Fig. 4l",0.00114 and 7.97E-04 and 9.51E-04
same,Extracellular L-2-HG accumulation,"P. putida KT2440 [6]; WT, 4 h, Fig. 4l",5.39E-04 and 5.72E-04 and 5.29E-04
same,Extracellular L-2-HG accumulation,"P. putida KT2440 [6]; WT, 6 h, Fig. 4l",0.00521 and 0.00557 and 0.00468
same,Extracellular L-2-HG accumulation,"P. putida KT2440 [6]; WT, 8 h, Fig. 4k",0.00293 and 0.00233 and 0.00276
same,Extracellular L-2-HG accumulation,"P. putida KT2440 [6]; WT, 8 h, Fig. 4l",0.0081 and 0.00438 and 0.0052
same,Extracellular L-2-HG accumulation,"P. putida KT2440 [6]; WT, 10 h, Fig. 4l",0.00453 and 0.00483 and 0.00472
same,Extracellular L-2-HG accumulation,"P. putida KT2440 [6]; WT, 12 h, Fig. 4l",0.00448 and 0.00573 and 0.00522
same,Extracellular L-2-HG accumulation,"P. putida KT2440 [6]; WT, 14 h, Fig. 4k",0.00683 and 0.00582 and 0.00462
same,Extracellular L-2-HG accumulation,"P. putida KT2440 [6]; WT, 14 h, Fig. 4l",0.0046 and 0.00456 and 0.00492
same,Extracellular L-2-HG accumulation,"P. putida KT2440 [6]; WT, 16 h, Fig. 4k",0
same,Extracellular L-2-HG accumulation,"P. putida KT2440 [6]; WT, 16 h, Fig. 4l",0.00403 and 0.00579 and 0.0044
